From patent publication US8987228B2, “Pharmaceutical composition including an A3 adenosine receptor agonist 1-deooxy-1-[N6-(3-idobenzyl)-adenin-9-yl]-N-methyl-β-D-ribofuronamide(IB-MECA/CF-101) for treatment of psoriasis” (Can-Fite Biopharma Ltd., priority 2009, dated 2015)
“Also recorded” adds a separate entry of the source.

System: moderate-to-severe chronic plaque psoriasis
Assay: Phase 2, multi-center, randomized, double-blind, placebo-controlled clinical study in psoriasis patients (PASI assessment)
Assay type: in vivo, human
Settings: 12 weeks
Description: A Phase 2, multi-center, randomized, double-blind, placebo-controlled clinical study was conducted in adult males and females, with ages of 18 to 70 years, with a diagnosis of moderate-to-severe chronic plaque psoriasis.
Eligible patients were randomly assigned to receive either placebo or a clinical grade […][N^6-(3-iodobenzyl)-adenin-9-yl]-N-methyl-β-D-ribofuronamide, IB-MECA (code-named by the study sponsor, Can-Fite Biopharma, the Assignee of this application, as “CF101”) at doses of 1 mg, 2 mg and 4 mg, taken orally twice daily (namely, total daily doses of 2 mg, 4 mg and 8 mg, respectively). IB-MECA was formulated in a tablet formulation as detailed in Table 1 below. Patients were instructed to take the formulation on an empty stomach. The study duration was 12 weeks.
The study was carried out in cohorts:
Cohort 1: 1 mg IB-MECA or placebo.
Cohort 2: 2 mg IB-MECA or placebo.
Cohort 3: 4 mg IB-MECA or placebo.
Within each cohort, patients were randomly assigned to either IB-MECA or placebo in a 3:1 ratio.
Disease was assessed using the Psoriasis Area and Severity Index (PASI).
Sixty two (62) patients were evaluated that belonged ton the following treatment groups (administration twice a day): […]

CNC(=O)[C@H]1O[C@@H](n2cnc3c(NCc4cccc(I)c4)ncnc32)[C@H](O)[C@@H]1O [IB-MECA, 1-deoxy-1-[N^6-(3-iodobenzyl)-adenin-9-yl]-N-methyl-β-D-ribofuronamide]
change in the Psoriasis Area and Severity Index (PASI) score from baseline over the study period (2 mg IB-MECA orally twice daily (total 4 mg/day) versus placebo, patients with moderate-to-severe chronic plaque psoriasis, FIG. 1): continuous improvement in the patients' condition throughout the course of the study; also recorded: marked effect | difference between three doses of IB-MECA in the change in the PASI score from baseline over the study period (2 mg twice daily (total 4 mg/day) compared with 1 mg and 4 mg twice daily (2 mg/day and 8 mg/day), oral, FIG. 2): considerably greater response over the two other tested dose groups; also recorded: significantly more effective in treatment of the psoriatic plaques than treatment of psoriasis at daily doses of 2 mg or 8 mg; also recorded: superior to a lower daily dose of 2 mg or a higher dose of 8 mg
